# Assay results published in patent EP3929184A1, “((((3-HALOPHENYL)(PHENYL)METHYL)SULFINYL)METHYL)THIOPHENE COMPOUNDS AND DIASTEREOMERIC FORMS THEREOF FOR USE IN IMPROVING COGNITIVE FUNCTIONS” (Red Bull GmbH, priority 2020, dated 2021).
# What was measured:
# presynaptic cells = assay: Dopamine release from presynaptic cells; format: cell-based; settings: different from compounds such as Amphetamines
# young rats = assay: Reversal of scopolamine effect in young rats; format: in vivo
structure (smiles),measurement,setting,value
"[O-][S+](Cc1cccs1)C(c1ccccc1)c1cccc(Br)c1 [2-2, 2-(((((R),(R)-3-bromophenyl)(phenyl)methyl)sulfinyl)methyl)thiophene]",release of dopamin from presynaptic cells,presynaptic cells,does not induce release
same,effect of compounds such as scopolamine,young rats,reversed
